The values below come from ChEMBL document CHEMBL2390850, “New azole antagonists with high affinity for the P2Y(1) receptor” (Bioorg Med Chem Lett, 2013).

A value given as a limit tells only on which side of the number the result lay.

Test system in the first series: not listed separately
Put plainly: Antiplatelet activity in human platelet-rich plasma assessed as inhibition of ADP-induced platelet aggregation. The class given is functional, cell-free.
Settings: not given
Consider `CC(C)(C)c1ccccc1Oc1ncccc1Nc1nnc(-c2ccncc2)s1`, for which the IC50 was found to be 29000 nM.
The same measure, in the same setting: under `CC(C)(C)c1ccccc1Oc1ncccc1Nc1nnc(-c2ccc(C(F)(F)F)cc2)s1` stands 7500 nM; under `CC(C)(C)c1ccccc1Oc1ncccc1Nc1nnc(-c2ccccc2)s1`, 13000 nM; under `CC(C)(C)c1ccccc1Oc1ncccc1NC(=O)Nc1ccc(C(F)(F)F)cc1`, 12600 nM.

In the next series the target is P2Y purinoceptor 1 (Homo sapiens, UniProt P47900). The experiment in a line: Displacement of [beta-33P]-2MeS-ADP from human P2Y1 receptor expressed in HEK293 cells after 1 hr by scintillation counting analysis. The class given is cell-based.
P2Y purinoceptor 1, sequence (P47900 whole entry): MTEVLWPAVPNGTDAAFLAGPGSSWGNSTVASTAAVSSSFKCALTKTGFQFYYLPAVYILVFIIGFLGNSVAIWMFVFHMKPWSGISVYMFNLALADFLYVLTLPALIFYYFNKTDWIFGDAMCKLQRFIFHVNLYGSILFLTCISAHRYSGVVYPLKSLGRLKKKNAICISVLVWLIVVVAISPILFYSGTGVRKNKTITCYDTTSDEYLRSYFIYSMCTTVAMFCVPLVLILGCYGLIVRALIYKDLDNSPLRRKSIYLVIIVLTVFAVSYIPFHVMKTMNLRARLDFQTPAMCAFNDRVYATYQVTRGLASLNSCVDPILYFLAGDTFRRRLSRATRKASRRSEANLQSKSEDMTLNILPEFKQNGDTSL
Settings: not given
For `CC(C)(C)c1ccccc1Oc1ncccc1Nc1nsc(-c2ccccc2)n1`, the Ki came out at 1500 nM.
Still for that read-out and setting: under `CC(C)(C)c1ccccc1Oc1ncccc1Nc1cc(-c2ccccc2)on1` stands 19 nM; under `CC(C)(C)c1ccccc1Oc1ncccc1Nc1nncs1`, 2730 nM.
Same read-out and setting: in the case of `CC(C)(C)c1ccccc1Oc1ncccc1Nc1nnc(-c2ccncc2)s1` it was 275 nM; in that of `CCOC(=O)c1nnc(Nc2cccnc2Oc2ccccc2C(C)(C)C)s1`, 90 nM.
On the same count and under the same terms, in the case of `CC(C)(C)c1ccccc1Oc1ncccc1Nc1nnc(-c2ccc3ccccc3c2)s1` it was 18 nM; in that of `CC(C)(C)c1ccccc1Oc1ncccc1Nc1cc(-c2ccccc2)n[nH]1`, 870 nM; in that of `CC(C)(C)c1ccccc1Oc1ncccc1Nc1nnc(-c2ccc(C(F)(F)F)cc2)s1`, 7 nM.
As for `CN(C)Cc1ccc(-c2nnc(Nc3cccnc3Oc3ccccc3C(C)(C)C)s2)cc1`, the Ki came out at 250 nM.
In the case of `CC(C)(C)c1ccccc1Oc1ncccc1N=C1NCC(c2ccccc2)O1` (stereo not drawn), affinity was put at a Ki of 2500 nM.
`CC(C)(C)c1ccccc1Oc1ncccc1Nc1ncc(-c2ccccc2)s1` came in with a Ki of 15 nM.
Same read-out and setting: in the case of `CC(C)(C)c1ccccc1Oc1ncccc1Nc1nnc(-c2ccccc2)o1` it was 70 nM; in that of `CC(C)(C)c1ccccc1Oc1ncccc1Nc1noc(-c2ccccc2)n1`, 410 nM; in that of `CC(C)(C)c1ccccc1Oc1ncccc1Nc1nnc(-c2ccc(OC(F)(F)F)cc2)s1`, 10 nM.
Same read-out and setting: in the case of `CN(C)c1ccc(-c2nnc(Nc3cccnc3Oc3ccccc3C(C)(C)C)s2)cc1` it was 27 nM.
The same measure, in the same setting: under `CC(C)(C)c1ccccc1Oc1ncccc1Nc1nnc(-c2ccccc2)s1` stands 11 nM.
Take `CN(C)Cc1cccc(-c2nnc(Nc3cccnc3Oc3ccccc3C(C)(C)C)s2)c1`: the Ki is 670 nM.
The same measure, in the same setting: under `Cn1nc(-c2ccccc2)cc1Nc1cccnc1Oc1ccccc1C(C)(C)C` stands more than 36000 nM; under `CN(C)c1cccc(-c2nnc(Nc3cccnc3Oc3ccccc3C(C)(C)C)s2)c1`, 55 nM.
The same measure, in the same setting: under `Cn1nc(Nc2cccnc2Oc2ccccc2C(C)(C)C)cc1-c1ccccc1` stands 45 nM.
On the same count and under the same terms, under `CC(C)(C)c1ccccc1Oc1ncccc1Nc1nnc(C(=O)O)s1` stands 2900 nM; under `CC(C)(C)c1ccccc1Oc1ncccc1Nc1nnc(-c2ccccn2)s1`, 21 nM.
`CC(C)(C)c1ccccc1Oc1ncccc1Nc1ncc(-c2ccccc2)o1`: the Ki was determined as 59 nM.
The same measure, in the same setting: in the case of `CC(C)(C)c1ccccc1Oc1ncccc1Nc1nc(-c2ccccc2)ns1` it was 25 nM; in that of `CC(C)(C)c1ccccc1Oc1ncccc1Nc1nnc(-c2cccnc2)s1`, 340 nM; in that of `CC(C)(C)c1ccccc1Oc1ncccc1NC(=O)Nc1ccccc1`, 41 nM.
In turn, `CC(C)(C)c1ccccc1Oc1ncccc1Nc1cc(-c2ccccc2)no1` displayed a Ki of 23 nM.
Same read-out and setting: under `CC(C)(C)c1ccccc1Oc1ncccc1NC(=O)Nc1ccc(C(F)(F)F)cc1` stands 15 nM.

Test system in a further series: not listed separately
Put plainly: Antiplatelet activity in human platelet-rich plasma assessed as inhibition of ADP-induced platelet aggregation relative to untreated control. The class given is functional.
Settings: not given
For `CC(C)(C)c1ccccc1Oc1ncccc1NC(=O)Nc1ccccc1`, the “inhibition (INH)” value is recorded as 95%.

Test system in a further series: not listed separately
The experiment in a line: Solubility of the compound at pH 6.5. The series is classed as physicochemical. The note with it: buffer.
On to `CC(C)(C)c1ccccc1Oc1ncccc1Nc1nnc(-c2ccc(C(F)(F)F)cc2)s1`, for which the solubility is less than 1 µg/mL.

Test system in the next series: not listed separately
The experiment in a line: Lipophilicity, log P of the compound by HPLC analysis. The series is classed as physicochemical.
Settings: not given
Compound `CC(C)(C)c1ccccc1Oc1ncccc1Nc1nnc(-c2ccc(C(F)(F)F)cc2)s1` came in with a logP of 6.
For `CC(C)(C)c1ccccc1Oc1ncccc1Nc1ncc(-c2ccccc2)s1`, the logP is 5.98.
On the same count and under the same terms, under `CC(C)(C)c1ccccc1Oc1ncccc1Nc1nnc(-c2ccccc2)s1` stands 5.01.

Test system in the next series: not listed separately
The experiment in a line: Plasma protein binding in human. The series is classed as ADME, cell-free. The note with it: read-out: PPB (converted).
On to `CC(C)(C)c1ccccc1Oc1ncccc1NC(=O)Nc1ccc(OC(F)(F)F)cc1`, for which the fraction unbound was 0.007.
